Drawing on patent US20110033393A1, “Hydrazone Compounds and Their Use” (priority 2009, published 2011), this text covers IC50 for one compound.

As usually defined, the IC50 is the concentration needed to halve the response being measured.

The target in this assay is T1, human TRPM5 ion channel (Homo sapiens, UniProt Q9NZQ8).
T1 sequence (Q9NZQ8 1-1165): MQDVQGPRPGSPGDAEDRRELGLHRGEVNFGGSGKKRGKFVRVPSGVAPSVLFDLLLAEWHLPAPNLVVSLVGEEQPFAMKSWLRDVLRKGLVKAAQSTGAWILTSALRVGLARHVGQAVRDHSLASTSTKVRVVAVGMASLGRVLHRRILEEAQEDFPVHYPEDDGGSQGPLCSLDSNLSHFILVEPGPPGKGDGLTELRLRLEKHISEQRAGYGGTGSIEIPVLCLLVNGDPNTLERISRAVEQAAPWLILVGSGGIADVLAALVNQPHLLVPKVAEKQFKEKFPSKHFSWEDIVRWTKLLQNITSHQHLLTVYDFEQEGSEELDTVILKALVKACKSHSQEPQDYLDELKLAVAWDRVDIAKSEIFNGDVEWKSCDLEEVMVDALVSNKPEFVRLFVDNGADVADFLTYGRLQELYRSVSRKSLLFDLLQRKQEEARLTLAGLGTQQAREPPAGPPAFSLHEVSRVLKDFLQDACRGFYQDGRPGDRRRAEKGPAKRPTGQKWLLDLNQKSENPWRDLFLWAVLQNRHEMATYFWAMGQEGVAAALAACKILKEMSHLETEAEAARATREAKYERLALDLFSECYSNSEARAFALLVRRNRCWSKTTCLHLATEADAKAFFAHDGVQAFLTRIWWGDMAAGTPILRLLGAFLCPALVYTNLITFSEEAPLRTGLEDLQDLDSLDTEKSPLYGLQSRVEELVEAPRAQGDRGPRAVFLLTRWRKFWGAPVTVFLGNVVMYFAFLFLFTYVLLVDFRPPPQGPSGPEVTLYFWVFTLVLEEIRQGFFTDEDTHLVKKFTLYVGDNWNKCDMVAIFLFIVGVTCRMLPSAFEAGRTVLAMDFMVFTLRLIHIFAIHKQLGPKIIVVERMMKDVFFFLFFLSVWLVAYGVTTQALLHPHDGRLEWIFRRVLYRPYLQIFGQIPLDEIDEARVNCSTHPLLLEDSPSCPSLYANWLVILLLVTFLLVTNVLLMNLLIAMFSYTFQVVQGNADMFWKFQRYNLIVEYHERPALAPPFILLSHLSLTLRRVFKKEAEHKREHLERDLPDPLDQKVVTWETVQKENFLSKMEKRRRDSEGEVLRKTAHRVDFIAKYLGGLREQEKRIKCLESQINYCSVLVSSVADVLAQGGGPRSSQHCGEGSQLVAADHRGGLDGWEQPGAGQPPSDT
Briefly: FLIPR-based assay for membrane potential and calcium mobilization (TRPM5 inhibiting activity). The class given is cell-based. Particulars: live cells, 30° C., read-out: hTrpM5 IC50. A digest of the protocol:
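Live cells expressing human TRPM5, assayed at 30 °C by FLIPR readout of membrane potential and calcium mobilization. Ten serial 2- or 3-fold dilutions from no more than 100 μM. IC50 derived by curve fitting of concentration-effect data.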
In general terms: A change in cytosolic calcium serves as a functional read-out for many receptors and channels.

In the case of `Cc1cc(/C=N/NC(=O)C2CC2c2ccccc2)cc2cccnc12` (racemic) [Example 10, trans-N′-((8-Methylquinolin-6-yl)methylene)-2-phenylcyclopropanecarbohydrazide], the IC50 is 420 nM.
